In assay [1] the test system is HIF-1α. The experiment in a line: HIF-1α accumulation in 22B head and neck cancer cells. The conditions noted are these: 22B cells, 100 μM each, last 30 minutes after 24 hours accumulation. Type of assay: cell-based, human. On the procedure: (§1) Human U87, U251, U251-HRE (20) and U373 glioma cells were cultured in Eagle's MEM medium (Mediatech). DU145 human prostate cancer cells and 022 human head and neck cancer cells were cultured in RPMI 1640 medium (Sigma). 22B Human head and neck cancer cells were cultured in high glucose DMEM (Gibco) containing 2 mM glutamine. C6 ODD-GFP rat glioma cells were cultured in high glucose DMEM with 1.5 mg/ml G418. All culture media were supplemented with 10% fetal bovine serum and 1% (v/v) penicillin/streptomycin. Rat C6 glioma cells were cultured in high glucose DMEM. For cell hypoxia treatment, the culture dishes were sealed in a modular incubator chamber, flushed with gas containing 1% O2, 5% CO2 and 94% N2 for 5 minutes, and incubated in this environment at 37° C. for indicated times.
(§2) Protein extraction, western blot analysis, and immunocytochemistry were performed as previously described. Mouse monoclonal anti-HIF-1α antibodies were 610958 (BD Biosciences), and NB100-123 (Novus). Mouse monoclonal anti-GFP antibody was 1814460 (Roche). Mouse monoclonal anti-β-actin antibody was ab6276-100 (Abcam). Dimethyloxalylglycine was D1070 (Frontier Scientific). All other chemicals were from Sigma. Antibodies recognizing HPH homologues were from Novus biologicals and the antisera recognizing […] of HIF-1α was kindly provided by R. Freeman.

For assay [2], the system named is HIF-1α. The experiment in a line: HIF-1α decay after washout of inducer. Format: cell-based, human. The conditions noted are these: 100 μM each. How it is done:
as §1, §2
To test this U251 cells was exposed to glucose-free Krebs buffer to either hypoxia (1% O2) or 2 mM pyruvate for four hours. Nuclear HIF-1α protein accumulation was induced by both treatments (FIG. 6A). […] HIF-1α immunoreactivity disappeared rapidly upon reoxygenation (return to 21% O2) of hypoxic cells as would be expected with the resumption of oxygen-dependent HIF-1α hydroxylation and proteolysis. […] To directly determine if the HPH activity in glioma cells was reversibly inactivated by pyruvate and oxaloacetate the ^35S-pVHL pulldown assay to measure HPH activity in extracts from cells treated for four hours with the 2-oxoacids was used. To capture the endogenous state of HPH activity, the cell extracts were first assayed without supplementation with exogenous reductants, ascorbate, or iron. […] The minimal HPH activity of extracts from pyruvate or oxaloacetate treated cells could also be restored by supplementation of the extracts with ascorbate or with exogenous ferrous iron (FeSO4) during the assay (FIG. 6D).

Assay [3] relates to labile intracellular iron pool. The experiment in a line: Calcein fluorescence assay for cellular free iron. Type of assay: cell-based, human. The settings on record: calcein loaded U251 cells. How it is done:
The ability of 2-oxoacids to chelate the labile intracellular iron pool was measured using the calcein fluorescence assay as previously described. The iron chelators desferrioxamine and bipyridyl were used as positive controls.

For assay [4], the system named is HPH. The experiment in a line: 2-Oxoglutarate: HPH binding assay. More on the design: species or system human. The settings on record: addition of 200 μM ferrous iron. On the procedure:
Gel was washed four times with the indicated buffer. Analysis of HPH binding was measured by scintillation counting.

Assay [5] deals with HPH. The experiment in a line: HPH activity in extracts of treated U251 cells (35S-pVHL pulldown). Type of assay: cell-based, human. On the procedure: (§3) Human HPH-1,2,3 and VHL pcDNA3.1/V5-HIS vectors (kindly provided by R. Bruick) were used for TNT Coupled Reticulocyte Lysate in vitro transcription/translation (Promega). Cytoplasmic extract for HPH activity was made by lysing cell pellets in assay buffer (20 mM Tris, pH 7.5, 5 mM KCl, 1.5 mM MgCl2, and 1 mM DTT) at 4° C. using a homogenizer, centrifuging at 20,000 g for 15 minutes and collecting supernatant for the assay. HPH enzymatic reactions were performed as previously described using either IVT products or cell extracts. This assay, chosen for its specificity for the HPH reaction, was linear over 30 minutes. For each reaction, either 7.5 μL of IVT products or 100 μg of cell extract protein were used as source of the enzyme. Activity was measured by either quantitative scintillation counting or by autoradiography after gel electrophoresis on a 10-20% Tris Glycine gradient gel (Invitrogen).
To test this U251 cells was exposed to glucose-free Krebs buffer to either hypoxia (1% O2) or 2 mM pyruvate for four hours. Nuclear HIF-1α protein accumulation was induced by both treatments (FIG. 6A). Then the cells were either returned to 21% O2 or the pyruvate was removed by extensively washing with glucose-free Krebs buffer. […]

Assay [6] deals with HIF-1α. The experiment in a line: Nuclear HIF-1α accumulation in human cancer cell lines (western blot). Format: cell-based. On the procedure:
as §1, with “DU145 human prostate cancer cells and 022 human head and neck cancer cells were cultured in RPMI 1640 medium (Sigma).” left out
Protein extraction, western blot analysis, and immunocytochemistry were performed as previously described. […] Mouse monoclonal anti-β-actin antibody was ab6276-100 (Abcam). Dimethyloxalylglycine was D1070 (Frontier Scientific). All other chemicals were from Sigma.
(A western blot detects proteins with antibodies after separation by electrophoresis.)

The test system of assay [7] is HIF-1α. The experiment in a line: HIF-1α hydroxyproline detection in U251 whole cell extracts. Type of assay: cell-based, human. The conditions noted are these: U251, four hours, antibody to hydroxylated ODD region. How it is done: as §2
Some reactive oxygen species can also induce HIF-1α. […] Next, attention was focused on HIF-1α proline hydroxylation as a target for 2-oxoacids.

A further assay deals with HPH1, HPH2, and HPH3. The experiment in a line: HPH prolyl hydroxylation assay with in vitro translated HPHs (35S-pVHL pulldown). The settings on record: in the absence of ascorbate or other reducing agents. Format: biochemical, human. On the procedure:
as §3
To determine whether HPH activity was directly modulated by pyruvate or oxaloacetate, Pro564 hydroxylation in a biotinylated HIF-1α ODD peptide by in vitro translated HPH1, HPH2, and HPH3 was examined. The ability of streptavidin beads to pull down ^35S-pVHL bound to the biotinylated peptide was used as evidence of HIF-1α ODD peptide hydroxylation. This is the most specific and sensitive assay for HPH activity. […] Such assays can also give high background values in cell extracts.

The test system of a further assay is VEGF and GLUT3. The experiment in a line: RT-PCR of HIF-1 regulated genes in U87 cells. The settings on record: U87, 5× the level normally found in MEM, 2 d. Format: cell-based, human. On the procedure:
Total RNA was isolated using the RNeasy kit (Qiagen). For RT-PCR, 1 μg of total RNA was used with the […] One-Step System (Invitrogen). VEGF, GLUT3, and β-Actin primers were described previously. For quantitative PCR analysis, the iQ SY BR Green Supermix and MyiQ Single-Color

Assay [8] relates to HIF-1α. The settings on record: requires conversion to pyruvate via lactate dehydrogenase (Lu et al. 2002); cited from earlier work.
In a further assay the test system is HIF-1. The experiment in a line: HIF-1 luciferase reporter assay in U251-HRE cells. The conditions noted are these: 2 mM 2-oxoacid, 250 μM amino acid, 8 h. Type of assay: cell-based, human. On the technique in general: Reporter assays use an easily measured gene product as a stand-in for the process of interest.
The next assay relates to ODD-GFP. The experiment in a line: Live cell assay for oxygen-dependent degradation, ODD-GFP transfected C6 glioma cells. Type of assay: cell-based, rat. The conditions noted are these: C6 cells in Krebs buffer; amino acids 0.5 mM. How it is done:
as §1
Next a live cell assay for oxygen-dependent HIF-1α degradation using C6 rat glioma cells that had been stably transfected with a vector encoding the HIF-1 cc ODD region fused to GFP (ODD-GFP) was performed. The ODD-GFP protein is hydroxylated and degraded in an oxygen dependent manner similar to HIF-1α. As with HIF-1α, a basal, as well as, hypoxia-inducible accumulation of ODD-GFP has been reported.

With `O=S(=O)([O-])[O-].[Fe+2]` [Fe(II)], in the assay on HIF-1α [1], the “accumulated (pyruvate-enhanced) HIF-1α after supplementation” value is on record as “Fe(II)>Fe(III)”. Also, the “accumulated (pyruvate-enhanced) HIF-1α after supplementation” value in the assay on HIF-1α [1] (listed as ferrous iron) was “diminished to a greater extent by ferrous iron than by ferric iron”. In the assay on HIF-1α [2], the “HIF-1α decay following induction with pyruvate or oxaloacetate, iron in wash” value is “enhancement of HIF-1α decay”; the “decay of NO-induced HIF-1α with iron in wash” value is on record as “accelerated the decay”; the “decay of accumulated HIF-1α after washing out DFO, iron added” value is “promoted decay”. The intracellular calcein fluorescence result in [3] is “decrease in fluorescence”. Moreover, in the assay with HPH [4], the “binding of 35S-HPH homologues to the 2-OG column” value is reported as “doubled”. In addition, the “HPH activity of extracts from pyruvate or oxaloacetate treated cells, extract supplemented during assay” value in the assay on HPH [5] (100 μM each) was “restored”. Besides, the “HIF-1α induction by pyruvate and oxaloacetate with iron added to cultured cells” value in the assay on HIF-1α [6] (U251, Fe(II) 100 μM) was “prevented HIF-1α induction”. Moreover, the “NO induced HIF-1α accumulation” value in the assay on HIF-1α [6] (U251, MEM, DETA-NO 300 μM, ascorbate 100 μM, Fe(II) 100 μM, GSH 5 mM) is on record as “complete inhibition”.

Take `COC(=O)CNC(=O)C(=O)OC` [DMOG, dimethyloxalylglycine]: in the assay on HIF-1α [7], the “hydroxyproline (Pro564) in induced HIF-1α” value is on record as “did not contain hydroxyproline”. In addition, the “HPH activity in extracts of cells treated for four hours” value in the assay on HPH [5] (U251, 2 mM pyruvate or oxaloacetate, 1 mM DMOG, no exogenous reductants, ascorbate or iron) is recorded as “no loss of HPH activity”.

On to `N[C@@H](Cc1c[nH]cn1)C(=O)O` [histidine], for which the “stimulation of HIF-1α ODD hydroxylation” value in the assay with HPH1, HPH2, and HPH3 is reported as “dose dependently stimulate HIF-1α ODD hydroxylation”. Besides, the “basal expression of the HIF-1 regulated genes VEGF and GLUT3” value with VEGF and GLUT3 is “lowered the basal expression”.

With `CC(O)C(=O)O` (stereo not drawn) [lactate], in the assay with HIF-1α [8], the “HIF-1α accumulation induced by lactate” value is given as “can induce HIF-1α accumulation”.

As for `N[C@@H](CS)C(=O)O` [cysteine], the “HRE-luciferase activity induced by pyruvate or oxaloacetate” value with HIF-1 was “lowered HRE-luciferase activity”. The “ODD-GFP induction by pyruvate or oxaloacetate” value in the assay with ODD-GFP is “reduced ODD-GFP induction”. Also, the “stimulation of HIF-1α ODD hydroxylation” value with HPH1, HPH2, and HPH3 is given as “dose dependently stimulate HIF-1α ODD hydroxylation”. Besides, the “basal expression of the HIF-1 regulated genes VEGF and GLUT3” value in the assay on VEGF and GLUT3 is listed as “lowered the basal expression”. In the assay with HIF-1α [6] (FIG. 3C, 1% O2 or 150 μM DFO), the “HIF-1α accumulation by hypoxia or the iron chelator DFO” value is “did not affect”. Besides, in the assay on HIF-1α [6] (U87, Krebs buffer reconstituted with MEM additives at concentration normally present in MEM, four hours), the “inhibition of basal HIF-1α accumulation” value was “key amino acids responsible for inhibiting basal HIF-1α accumulation”. In addition, in the assay on HIF-1α [6] (U87, four hours, glucose-free Krebs, 1 mM pyruvate or oxaloacetate, 250 μM (FIG. 3C)), the “inhibition of HIF-1α accumulation, L- vs D-isomers and dimer” value is “effective”. In addition, the “HIF-1α induction by glucose, pyruvate, and oxaloacetate” value in the assay with HIF-1α [6] (all cell lines used in this study (data not shown)) is “lowered HIF-1α induction”. Further, in the assay on HIF-1α [6] (amino acid raised to 5× its normal level in MEM), the “inhibition of basal HIF-1α accumulation in complete culture media” value is listed as “likely endogenous inhibitors of basal HIF-1α accumulation”.

The record behind these values is US20080045463A1, “Methods For Lowering Hif-1 Mediated Gene Expression” (priority 2004, published 2008).
